Data as given in US20100204148A1, “(D-LEU7 ) -HISTRELIN AS A THERAPEUTIC AGENT” (priority 2007, published 2010).

Columns and labels:
[1] = test system: hepatitis B virus (HBV) ayw strain; experiment: HBV experimental assay system (secreted HBV DNA, TaqMan PCR); conditions: HepG2-2.2.15; peptide 10 micrograms per ml; six days; HBV DNA in supernatant
Human A549 cells [2] = experiment: Propidium iodide cell cycle assay; format: cell-based; conditions: 10 micrograms per ml, 24 hours, FACS
From the text: The cell cycle consists of four distinct phases: […]

RAW 264.7 cells = experiment: Phagocytosis assay (Fluorescein-labeled Escherichia coli); format: cell-based, mouse; conditions: 10 micrograms per ml, flow cytometry
[3] = test system: Primary Human endothelial cells (HUVEC); experiment: Endothelial cell migration assay; format: cell-based; conditions: 10 micrograms per ml, 22 hours
in vitro [4] = conditions: human, MRC-5 cells (human embryonal lung fibroblasts)
Protocol: The following day, peptide were added and tested in duplicates.

Pseudomonas aeruginosa = format: cell-based; conditions: 10 micrograms per ml
in vitro [5] = conditions: human, CEM-SS cells
Human A549 cells [6] = experiment: Apoptosis induction assay (Annexin-5); format: cell-based; conditions: 10 micrograms per ml, 24 hours
From the text: Human A549 cells (carcinomic human alveolar basal epithelial cells) were utilized in the experiments employing the Annexin-5 apoptosis assay.

HCMV strain AD169 = experiment: HCMV plaque reduction assay in MRC-5 cells; format: cell-based; conditions: HCMV in MRC-5 cells; peptide 10 micrograms per ml; 7-10 days
From the text: Ganciclovir was used as positive control.

[7] = test system: Human Peripheral Blood Mononuclear Cells (PBMC); experiment: B cell proliferation assay (SAC plus IL-2, 3H-thymidine); conditions: 10 micrograms per ml
[8] = test system: spleen cells of Ovalbumin-immunized Balb/c mice; experiment: Th1/Th2 cytokine profiling assay; format: cell-based, mouse; conditions: 10 micrograms per ml; Ovalbumin restimulation; 72 hours
in vitro [9] = conditions: human
Human A549 cells [10] = experiment: Apoptosis prevention assay (C2 ceramide, Annexin-5); format: cell-based; conditions: 30 min pretreatment with 10 micrograms per ml
Streptococcus pneumoniae = format: cell-based; conditions: 10 micrograms per ml
[11] = test system: macrophages from human PBMC; experiment: TNF alpha production assay (LPS-stimulated macrophages, ELISA); format: cell-based; conditions: 10 micrograms per ml, lipopolysaccharide 200 ng/ml, overnight
From the text: Not stimulated macrophages served as negative background control.

HIV-1IIIB = experiment: HIV-1 antiviral assay (CPE reduction) in CEM-SS cells; format: cell-based; conditions: peptide 10 micrograms per ml; 6 days post-infection; MTS
HUVEC = experiment: Endothelial tube formation assay; format: cell-based, human; conditions: 10 micrograms per ml, 20 hours
From the text: Positive control was vehicle only.

MRSA = conditions: 10 micrograms per ml
[12] = test system: Human Peripheral Blood Mononuclear Cells (PBMC); experiment: T cell proliferation assay (PHA, 3H-thymidine); conditions: 10 micrograms per ml

CCNC(=O)[C@@H]1CCCN1C(=O)[C@H](CCCNC(=N)N)NC(=O)[C@@H](CC(C)C)NC(=O)[C@@H](Cc1cn(Cc2ccccc2)cn1)NC(=O)[C@H](Cc1ccc(O)cc1)NC(=O)[C@H](CO)NC(=O)[C@H](Cc1c[nH]c2ccccc12)NC(=O)[C@H](Cc1c[nH]cn1)NC(=O)[C@@H]1CCC(=O)N1 [D-Leu^7-Histrelin, Pyr-His-Trp-Ser-Tyr-D-His(Bzl)-D-Leu-Arg-Pro-NHEt]
% inhibition of HBV replication in HEP G2 cells [1]: 61.6%
Cell cycle analysis G0/G1 (Human A549 cells [2]): 58.9
Cell cycle analysis G2/M (Human A549 cells [2]): 9.7
Cell cycle analysis S (Human A549 cells [2]): 31.4
% of control phagocytosis (RAW 264.7 cells): 102.9%
% inhibition of migration [3]: 8%
viability at 144 h (in vitro [4]): 100%
% inhibition (Pseudomonas aeruginosa): 0.0%
viability at 10 micrograms per ml (in vitro [5]): 100%
% of induction (Human A549 cells [6]): 4.3%
% plaque reduction (HCMV strain AD169): 2.5%
% of SAC/IL2 induced control [7]: 92.6%
IFNγ spleen cells; TH1 response (% of control) [8]: 69.2 % of control
IL-2 spleen cells (% of control) [8]: 155.8 % of control
IL-4 spleen cells; TH2 response (% of control) [8]: 235.7 % of control
IL-5 spleen cells; TH2 response (% of control) [8]: 93.0 % of control
TNF-a spleen cells; TH1 response (% of control) [8]: 116.4 % of control
viability at 144 h, 10 micrograms per ml (in vitro [9]): 91.4%
% prevention of ceramide induced apoptosis (Human A549 cells [10]): 0.0%
% inhibition (Streptococcus pneumoniae): 100.0%
% of LPS induction [11]: 111.5%
% CPE reduction in HIV-1 infected CEM-SS cells (HIV-1IIIB): 0.0%
% inhibition of tube formation (HUVEC): 4%
% inhibition (MRSA): 0.0%
% of PHA induced control [12]: 96.2%
